The source of these data is US10543183B2, “Treatment and diagnosis of melanoma” (The Rockefeller University, priority 2012, dated 2020).

In test [1] the test system is B16F10 mouse melanoma cells. Briefly: subcutaneous B16F10 tumor growth in mice. It is filed as in vivo. The settings on record: 50 mg/kg, i.p., daily.
Test [2] deals with B16F10 mouse melanoma cells. Briefly: subcutaneous B16F10 tumor growth in mice. It is filed as in vivo. As to conditions: 50 mg/kg, i.p., daily. As to the method: First, the cells were treated with 500 μg/mL DTIC for one week. Following this initial DTIC treatment, the remaining (˜10%) viable cells were allowed to recover for one week, after which 750 μg/mL of DTIC was added to the cell media for 5 days. Subsequent to this high-dose treatment, the cells were allowed to recover in the presence of low-dose DTIC (100 μg/mL) for one week. The cells were then continuously cultured in cell media containing 200 μg/mL DTIC for at least one month prior to grafting the cells into mice. DTIC was added to fresh cancer cell media every 3 days. […] DTIC was dissolved in the presence of citric acid (1:1 by weight) in water and administered daily by intraperitoneal injection.
The source holds these as a separate data set.

The subject of test [3] is ApoE expression in human melanoma cells. Briefly: ApoE mRNA expression by qRT-PCR in melanoma cells. In kind it is cell-based. As to conditions: MeWo cells; 500 nM, 1 μM, or 2 μM for 48 hours. On the procedure:
Total RNA was extracted from various cell lines using the miRvana kit (AM1560, Applied Biosystems, Austin, Tex.). The expression levels of mature miRNAs were quantified using the Taqman miRNA expression assay (4427975-0002228, Applied Biosystems). RNU44 was used as an endogenous control for normalization. For mRNA expression analyses, 600 ng of total RNA was reverse transcribed using the cDNA First-Strand Synthesis Kit (18080-051, Invitrogen), and roughly 200 ng of the resulting cDNA was then mixed with SYBR green PCR Master Mix (4309155, Applied Biosystems) and the appropriate primers. Each reaction was performed in quadruplicate, and mRNA expression was quantified by performing real-time PCR amplification using an ABI Prism 7900HT Real-Time PCR System (Applied Biosystems). GAPDH was used as an endogenous control for normalization. The following primers were used: […]
RNA was extracted from whole cell lysates using the Total RNA Purification Kit (17200, Norgen, Thorold, Canada). 600 ng of total RNA was then reverse transcribed into cDNA using the cDNA First-Strand Synthesis Kit (18080-051, Invitrogen), and quantitative real-time PCR amplification was performed as previously described (Pencheva et al., 2012) using an ABI Prism 7900HT Real-Time PCR System (Applied Biosystems, Austin, Tex.). Each PCR reaction was carried out in quadruplicates. Gene expression was normalized to GAPDH, which was used as an endogenous control.
For every sample, 600 ng of RNA was reverse transcribed into cDNA using the cDNA First-Strand Synthesis kit (Invitrogen). Approximately 200 ng of cDNA was mixed with SYBR® green PCR Master Mix and the corresponding forward and reverse primers specific for detection of human ApoE. Each reaction was carried out in quadruplicates, and ApoE mRNA expression levels were measured by quantitative real-time PCR amplification using an ABI Prism 7900HT Real-Time PCR System (Applied Biosystems). The relative ApoE expression was determined using the ΔΔCt method. GAPDH was used as an endogenous control for normalization purposes.

The next test has as its system melanoma cells. Briefly: cell proliferation and viability assay. It is filed as cell-based, human. As to conditions: MeWo, HT-144, SK-Mel-334.2; 1 μM, 5 days. On the procedure:
To determine the effects of miR-199a or miR-1908 over-expression and combinatorial LNA-induced miRNA inhibition on cell proliferation, 2.5×10^4 cells were seeded in triplicate in 6-well plates, and viable cells were counted after 5 days. […] Viable cells were counted after 8, 24, 48, 72, and 120 hours.
After 5 days, the number of viable and dead cells was counted using the trypan blue dye (72-57-1, Sigma-Aldrich), which selectively labels dead cells.

For test [4], the system named is human melanoma cells (MeWo, MeWo-LM2, HT-144, SK-Mel-2, SK-Mel-334.2). Briefly: trans-well matrigel cell invasion assay, melanoma cells. It is filed as cell-based. As to conditions: MeWo, HT-144, SK-Mel-2, SK-Mel-334.2; 1 μM for 72 hours. As to the method:
Cancer cells were serum-starved in 0.2% FBS DMEM-based media for 12 hours. Trans-well invasion chambers (354480, BD Biosciences, Bedford, Mass.) were pre-equilibrated prior to beginning the assay by adding 0.5 mL of starvation media to the top and bottom chambers. After 30 minutes, the media in the top chamber was removed, and 0.5 mL of media containing 1×10^5 cancer cells was added into each matrigel-coated trans-well insert and incubated at 37° C. for 24 hours. For neutralization antibody and/or recombinant protein experiments, antibody/recombinant protein was added to each well at the start of the assay at the following concentrations as indicated in the figures: 5-40 μg/mL anti-ApoE 1D7 (Heart Institute, University of Ottawa), 5-40 μg/mL anti-IgG (AB-108-C, R&D Systems, Minneapolis, Minn.), 100 μM recombinant human ApoE3 (4696, BioVision, Mountain View, Calif.), and 100 μM BSA (A2153, Sigma-Aldrich). Upon completion of the assay, matrigel-coated inserts were washed with PBS, the cells at the top side of each insert were scraped off, and the inserts were fixed in 4% paraformaldehyde for 15 minutes. The inserts were then cut out and mounted onto slides using VectaShield mounting medium containing DAPI (H-1000, Vector Laboratories, Burlingame, Calif.). The basal side of each insert was imaged using an inverted fluorescence microscope (Zeiss Axiovert 40 CFL) at 5× magnification, taking three representative images for each insert. The number of invaded cells was quantified using ImageJ (NIH).
The cell invasion assay was performed as previously described in detail (Pencheva et al., 2012) using a trans-well matrigel invasion chamber system (354480, BD Biosciences). In brief, various melanoma cells were cultured in the presence of DMSO, GW3965, T0901317, or Bexarotene at 1 μM for 56 hours, after which melanoma cells were switched to starvation media (0.2% FBS) for 16 hours in the presence of each drug. Following starvation, cells were seeded into matrigel-coated trans-well inserts, and the invasion assay was allowed to proceed for 24 hours at 37° C. For ApoE antibody neutralization experiments, 40 μg/mL 1D7 anti-ApoE blocking antibody (Heart Institute, University of Ottawa, Ottawa, Canada) or 40 μg/mL anti-IgG control antibody (AB-108-C, R&D Systems, Minneapolis, Minn.) was added to each trans-well insert at the start of the assay.
The cells were then serum starved for 16 hours in 0.2% FBS media in the presence of each corresponding drug or DMSO. Following serum starvation, the cells were subjected to the trans-well invasion assay using a matrigel invasion chamber system (354480, BD Biosciences). Invasion chambers were pre-equilibrated prior to the assay by adding 0.5 mL of starvation media to the top and bottom wells. Meanwhile, cancer cells were trypsinized and viable cells were counted using trypan blue. Cancer cells were then resuspended at a concentration of 2×10^5 cells/1 mL starvation media, and 0.5 mL of cell suspension, containing 1×10^5 cells, was seeded into each trans-well. The invasion assay was allowed to proceed for 24 hours at 37° C. […] Following fixation, the inserts were washed in PBS, cut out, and mounted onto slides using VectaShield mounting medium containing DAPI nuclear stain (H-1000, Vector Laboratories). The basal side of each insert was imaged using an inverted fluorescence microscope (Zeiss Axiovert 40 CFL) at 5× magnification, and the number of DAPI-positive cells was quantified using ImageJ.

Test [5] relates to endothelial cells (HUVEC) recruited by human melanoma cells. In words: trans-well endothelial recruitment assay. In kind it is cell-based. As to conditions: MeWo, HT-144, SK-Mel-2, SK-Mel-334.2; 1 μM for 72 hours. As to the method: 5×10^4 cancer cells were seeded into 24-well plates approximately 24 hours prior to the start of the assay. HUVEC's were grown to 80% confluency and serum starved in EGM-2 media supplemented with 0.2% FBS for 16 hours. HUVEC's were then pulsed with Cell Tracker Red CMTPX dye (C34552, Invitrogen) for 45 minutes. Meanwhile, cancer cells were washed with PBS, 0.5 mL of 0.2% FBS EGM-2 media was added to each well, and a 3.0 μm HTS Fluoroblock insert (351151, BD Falcon, San Jose, Calif.) was placed into each well. 1×10^5 HUVEC's, resuspended in 0.5 mL of starvation media, were seeded into each trans-well insert, and the recruitment assay was allowed to proceed for 16-18 hours at 37° C. For neutralization antibody and/or recombinant protein experiments, antibody/protein was then added to each well at the appropriate concentration as indicated in the figures: 40 μg/mL anti-ApoE 1D7, 40 μg/mL anti-IgG, 100 μM rhApoE3, and 100 μM BSA. Upon completion of the assay, the inserts were processed and analyzed as described for the matrigel invasion assay above (See Matrigel Invasion Assay).
The endothelial recruitment assay was carried out as previously described (Pencheva et al., 2012; Png et al., 2012). Melanoma cells were treated with DMSO, GW3965, T0901317, or Bexarotene at 1 μM for 56 hours, after which 5×10^4 cells were seeded in a 24-well plate in the presence of each drug and allowed to attach for 16 hours prior to starting the assay. HUVEC cells were serum-starved overnight in EGM-2 media containing 0.2% FBS. The following day, 1×10^5 HUVEC cells were seeded into a 3.0 μm HTS Fluoroblock trans-well migration insert (351151, BD Falcon, San Jose, Calif.) fitted into each well containing cancer cells at the bottom. The HUVEC cells were allowed to migrate towards the cancer cells for 20 hours at 37° C., after which the inserts were processed as previously described (Pencheva et al., 2012). For ApoE antibody neutralization experiments, 40 μg/mL 1D7 anti-ApoE blocking antibody (Heart Institute, University of Ottawa, Ottawa, Canada) or 40 μg/mL anti-IgG control antibody (AB-108-C, R&D Systems, Minneapolis, Minn.) was added to each trans-well insert at the start of the assay.
Subsequently, 5×10^4 cancer cells were seeded into 24-well plates in the presence of each drug or DMSO and allowed to attach for 16 hours prior to starting the assay. Human umbilical vein endothelial cells (HUVEC cells) were serum-starved in 0.2% FBS-containing media overnight. The following day, 1×10^5 HUVEC cells were seeded into a 3.0 μm HTS Fluoroblock insert (351151, BD Falcon) fitted into each well containing the cancer cells at the bottom. The HUVEC cells were allowed to migrate towards the cancer cells for 20 hours, after which the inserts were washed in PBS, fixed in 4% PFA, labeled with DAPI, and mounted on slides. The basal side of each insert was imaged using an inverted fluorescence microscope (Zeiss Axiovert 40 CFL) at 5× magnification, and the number of DAPI-positive cells was quantified using ImageJ.

With `CN(C)/N=N/c1[nH]cnc1C(N)=O` [dacarbazine, reference compound], the “growth of DTIC-sensitive parental B16F10 line” value in test [1] is “significantly suppressed”. Also, in test [2], the “tumor growth by B16F10 DTIC-resistant cells” value is recorded as “did not affect”.
Consider `Fc1ccc(-c2c3cccc(C(F)(F)F)c3nn2Cc2ccc(F)cc2Cl)cc1` [LXR-623 3], for which the ApoE expression induction result in test [3] is reported as “varied degrees of ApoE expression induction”.
Turning to `C=C(c1ccc(C(=O)O)cc1)c1cc2c(cc1C)C(C)(C)CCC2(C)C` [bexarotene, reference compound], the “cell proliferation or cell viability rates” value in the test on melanoma cells is given as “did not affect”. For the same molecule, the “ability of melanoma cells to invade through matrigel” value in test [4] was “suppressed invasion only in half of the melanoma lines tested”. Moreover, the “ability of melanoma cells to recruit endothelial cells” value in test [5] was “did not significantly affect”.
